# From patent publication US20080280983A1, “METHODS OF TREATING RETT SYNDROME” (CeNeRx BioPharma, priority 2007, published 2008)
# Like-named read-outs stand apart in the source and are kept apart here.
# What was measured:
# CRH mRNA = conditions: sustained treatment, hypothalamus and cerebral cortex of rats; cited from earlier work
# GABA receptors = conditions: cited from earlier work
# rat = conditions: in vivo, ip; cited from earlier work
# mouse [1] = conditions: intravenous route; cited from earlier work
# [2] = tested on: strychnine-induced mortality; conditions: for type of antagonism of strychnine from slope of dose/mortality line: 100 mg/Kg i.p. pretreatment
# Experimental: Strychnine causes muscular convulsions and eventual death through asphyxia or sheer exhaustion in mammals.
# Strychnine was administered i.p., dissolved in normal saline at a constant volume of 10 ml/kg. […] The number of deaths was recorded, starting 15 minutes after administration. Using data on deaths at each dose, the LD50, the 95% confidence intervals, and the line slope S were calculated.
# [3] = tested on: isoniazide-induced convulsions; experiment: Isoniazide-induced convulsions in rats; format: in vivo, rat; conditions: 1 hour prior to isoniazide 100 mg/kg i.p.
# Experimental: The method of Reilly R. H. et al. (JAMA 152(14):1317; 1953), herein incorporated by reference in its entirety, was used in modified form. […] Both the ED50 and ED84 were calculated. In the second part of the test, the ED84 was administered at different times (0.5-1.0-1.5-2.0-3.0 hours) prior to isoniazide administration for the purpose of determining the duration of action and the curve of kinetic activity. Female rats fasted for 17 hours were used for the test.
# CRH = CRH concentration in hypothalamus and cerebral cortex, foot-shock stress; format: in vivo, rat
# From the text: As mentioned above, stress is known to be associated with release of CRH from the hypothalamus and activation of the HPA axis. This is paralleled by changes in the CRH content of different brain regions and alterations in the expression of messenger RNA (mRNA) for CRH.
# rats [4] = experiment: Water maze test; format: in vivo, rat; conditions: 100 mg/Kg
# Experimental: The water maze test is designed to test the effect of drugs on learning and performance in a task that is performed under a stressful condition. After several trials under control conditions, rats learn to exit the water maze with greater speed and with fewer errors. Performance in this test can be improved by drugs that either reduce stress and/or enhance learning (e.g. muscarinic agonists). On the contrary, drugs that impair learning (e.g. scopolamine) can worsen performance. […] This indicates improved learning and retention.
# mouse [5] = conditions: cited from earlier work
# mice = experiment: Rota-rod test; format: in vivo, mouse; conditions: 100 mg/Kg, versus untreated mice, FIG. 8A
# From the text: Motor performance can be tested by measuring the length of time an animal can remain on a slowly rotating cylinder, as in the rota-rod test.
# aged mice = experiment: Taut thread test; format: in vivo, mouse
# Experimental: In this test, aged mice are required to traverse a thread stretched between two points. Performance is measured by the time taken to reach the end and the number of resting positions adopted during the test.
# [6] = tested on: pentetrazol-induced convulsions; experiment: Pentetrazol-induced convulsions in rats; format: in vivo, rat; conditions: for animals manifesting convulsions: 30 minutes before pentetrazol 80 mg/kg i.p.
# Experimental: The method proposed by Goodman L. S. et al. (J. Pharmacol. Test Ther. 108:168; 1958) was used. […] After 30 minutes, pentylene tetrazol (80 mg/kg i.p.) was administered. The number of animals from each group who manifested at least one convulsion during the 30 minutes after injection was counted. The differences between treatments were statistically analyzed using the chi-square/Fisher exact test.
# [7] = tested on: bicucullin-induced convulsions; experiment: Bicucullin-induced convulsions in rats; format: in vivo, rat; conditions: for animals showing convulsions: 1 hour before bicuculline 4.5 mg/kg i.p., FIG. 4; for protection against convulsions: percent compared with controls
# Experimental: The method described by Curtis D. R. et al. (Brain Res. 34:301; 1971), herein incorporated by reference in its entirety, was used in modified form.
# One hour later, bicuculline was administered by intraperitoneal route at a dose of 4.5 mg/kg dissolved in 10 ml/kg NSS. The number of animals manifesting any type of convulsion was then counted. The protection conferred by the treatments was then calculated as percent compared with the controls. The statistical significance of the differences was analyzed using the Yates chi-square test.
# [8] = tested on: electroshock-induced convulsions; experiment: Electroshock-induced convulsions in rats; format: in vivo, rat; conditions: 30 minutes before shock
# Experimental: Male rats were studied using the method described by E. Chojnacka-Wojcik (Pol. J. Pharmacol. Pharm., 35:511-15, 1983), herein incorporated by reference in its entirety.
# At 30 minutes after dosing, the animals were given a non-lethal electric shock (50 Hz, 50 mA, impulse train duration 0.2 s via corneal electrodes wetted in normal saline). […] The frequency of tonic and clonic convulsions among the treatment groups was analyzed using the Yates chi-square test .
# rats [9] = experiment: Open field behavior test; format: in vivo, rat
# From the text: The open-field behavior test relies on the observation that rats exposed to a novel open environment display behaviors (exploratory ambulation, rearing, and dropping fecal boluses) that are thought to be naturally defensive and anticipatory of potential threats in the environment. Pharmacologic interventions that attenuate these behaviors may have utility in modifying pathologic fear or stress responses in a clinical context.
smiles,measurement,setting,value
"CC(C)(C)C(=O)NCCCC(=O)O [pivagabine, 4-[(2,2-dimethyl-1-oxopropyl)amino]butanoic acid]",abundance of CRH mRNA,CRH mRNA,increases the abundance of CRH mRNA
same,binding to GABA receptors,GABA receptors,does not appear to bind to GABA receptors
same,dose up to which no toxic effects were observed,rat,1000 mg/kg
same,LD50,mouse [1],1750 mg/kg
same,effect on LD50 of strychnine,"[2]; 100 mg/Kg i.p. 30 minutes prior to strychnine i.p., mice, FIG. 2",raised the LD50 of strychnine
same,type of antagonism of strychnine from slope of dose/mortality line,[2]; mice,nonspecific antagonism
same,protection against seizures,"[3]; highest dose (oral doses 25-50-100-200 mg/Kg), FIG. 5",90%
same,"anticonvulsive effect, dose-effect relationship",[3]; oral 25-50-100-200 mg/Kg,dose-related increase
same,effect on CRH concentration in the cerebral cortex,"CRH; pivagabine alone (no foot shock), cerebral cortex",no effect
same,reduction of CRH concentration in the hypothalamus,"CRH; pivagabine alone (no foot shock), hypothalamus",52%
same,effects of foot-shock stress on CRH concentration,"CRH; subchronic treatment, hypothalamus and cerebral cortex, FIGS. 12A and 12B",prevented the effects of foot-shock stress
same,performance in later sessions,rats [4]; days 4 and 5,tended to be superior to that of controls
same,time to exit and number of errors made,rats [4]; rats,performed as well as the control group
same,anti-depressive and anxiolytic activity,mouse [5],a certain anti-depressive and anxiolytic activity
same,time remaining on the rotating cylinder,mice,significantly longer
same,number of resting positions adopted,aged mice; FIG. 9B,significantly less
same,time taken to traverse the thread,"aged mice; versus control mice, FIG. 9A",significantly faster
same,animals manifesting convulsions,"[6]; 100 mg/kg i.p., p<0.01, FIG. 3",30%
same,animals showing convulsions,[7]; 100 mg/kg orally,4/10
same,animals showing convulsions,[7]; 200 mg/kg orally,1/10
same,protection against convulsions,[7]; high dose 200 mg/kg orally,90%
same,number of tonic convulsions in response to electric shock,"[8]; 100 or 200 mg/Kg i.p., FIG. 1",significantly reduced
same,number of rearing movements,"rats [9]; 50 and 100 mg/Kg i.p., FIG. 6B",significantly reduced
same,"ambulation, number of sectors explored per unit time",rats [9]; FIG. 6A,significant decrease
same,"defecation, number of fecal boluses produced",rats [9]; FIG. 6C,significant decrease
CCC1(c2ccccc2)C(=O)NC(=O)NC1=O [luminal sodium],animals manifesting convulsions,[6]; 10 mg/kg i.p.,None
same,protection against convulsions,[7]; 20 mg/kg orally,100%
same,tonic and clonic convulsions in response to electric shock,[8]; luminal sodium 10 mg/Kg i.p.,completely blocked
NCCCC(=O)O [GABA],anticonvulsant effect,"[6]; 50 or 100 mg/kg i.p. (either dose), pentetrazol 80 mg/kg i.p.",no anticonvulsant effect
same,protection against convulsions,[7]; high dose 200 mg/kg orally,20%
same,protection against convulsions,[7]; low dose 100 mg/kg orally,10%
Cc1ccccc1OCC(O)CO (stereo not drawn) [mephenesine],type of antagonism of strychnine from slope of dose/mortality line,[2]; mice,competitive antagonism
same,effect on LD50 of strychnine,"[2]; mouse, in vivo",raised the LD50 of strychnine
